Reference: US5629430A, “Trifluoromethylpyrroloindolecarboxylic acid ester and process for production thereof” (Kyorin Pharmaceutical Co., Ltd., priority 1992, dated 1997)
Converted amounts (≈) assume the structure as drawn. Where a name gives a salt, the structure may show the parent alone. Read-outs that look alike come from different tables or passages of the source.

What was measured:
[1] = system: P388 mouse leukemia cells; experiment: Activity against tumor cell growth (P388, MTT, 72 h); type: cell-based; conditions: P388 mouse leukemia cells, 72 h, 37° C., MTT; read-out: IC50 (50% growth inhibition concentration)
Method: Using a culture medium RPMI1640 supplemented with 10% inactivated bovine fetal serum, 2 mM glutamine, 100 μ/ml kanamycin sulfate, and 5 μM 2-hydroxyethyldisulfide (This culture medium is hereinafter referred to simply as "culture medium"), P388 mouse leukemia cells were diluted to a concentration of 1.5×10^5 cells/ml in the culture medium, and were placed in each well of 96-well multiplate in 60 μl portions. Separately, the test compound was dissolved in dimethylsulfoxide and was adequately diluted with the culture medium. The diluted solution containing test compound was added to the wells of the above plate respectively in 60 μl portions. Then the cells were incubated in a CO2 -incubator (5% CO2, 37° C.) for 72 hours.
The surviving cell numbers were measured according to the Mosmann's method (J. Immunol. Meth., 65 55-63, 1983) as follows. A 2.5 mg/ml solution of MTT (3-[4,5-dimethylthiazol-2-yl]-2,5-diphenyltetrazolium bromide) in Dulbecco's phosphate buffer solution (PBS) was prepared and added to each of the wells by 20 μl. The cells were further incubated for 3 hours. A 150 μl portion of 0.04N hydrochloric acid-isopropanol solution was added to each of the wells, and MTT-formazane formed was allowed to dissolve by pipetting. The absorbance of the solutions was measured at 540 nm taking the no-cell-containing [solution as the background. The 50% growth inhibition concentration (ICs50) was calculated from ratio of the absorbances of the treated samples to the absorbance of the no-medicine-treated sample, and from the concentration of the test compound.

Sarcoma-180 cells = experiment: Antineoplastic activity, mice having Sarcoma-180 cells transplanted subcutaneously; type: in vivo, mouse (female, CDR strain); conditions: Mus musculus, Sarcoma-180, iv, 144 h, read-out: T/C (average tumor weight, dosed vs. solvent-dosed control); for response vs control in vivo at 0.125 mg/kg: i.v. 0.125 mg/kg single dose
Method: The test compound was dissolved in dimethylsulfoxide, and the solution was adequately diluted with 10% Emulfore EL620(produced by Rhone Poulenc Co.) to prepare the test compound solution. The antineoplastic activity was evaluated as below.
To the lateral region of a female mouse (CDR strain, 5 to 6 week age), 3.6×10^6 to 5×10^6 Sarcoma-180 cells were transplanted subcutaneously. Next day, the test medicine solution was injected into the tail vein in a single dose. Eight to twelve mice were employed for the solvent-dosed control group, and five mice were employed for the dosed group. Six days after the dosage, the tumor was cut out, and the weight thereof was measured. The antineoplastic effect was evaluated by the ratio (T/C) of the average tumor weight of the dosed group (T) to the average tumor weight of the solvent-dosed control group (C).

[2] = i.v. 0.25 mg/kg single dose, tumor weighed six days after dosage
[3] = tumor weighed six days after dosage

Question: How did the IC50 [1] turn out when `COC(=O)c1c(C(F)(F)F)[nH]c2c(O)cc3c(c12)C(CCl)CN3C(=O)c1cc2cc(NC(=O)c3cc4cccc(OC)c4o3)ccc2[nH]1` (centres unmarked) [Example 11, Methyl 1-chloromethyl-5-hydroxy-3-[5-[(7-methoxybenzofuran-2-ylcarbonyl)amino]-1H-indol-2-ylcarbonyl]-7-trifluoromethyl-1,2,3,6-tetrahydropyrrolo[3,2-e]indole-8-carboxylate] was run?
Answer: 0.67 ng/mL (≈ 0.984 nM)

Question: What about the response vs control in vivo at 1 mg/kg (Sarcoma-180 cells; i.v. 1.0 mg/kg single dose, tumor weighed six days after dosage) of the same molecule?
Answer: 6%

Question: How did the IC50 [1] turn out when `COC(=O)c1c(C(F)(F)F)[nH]c2c(O)cc3c(c12)C(CCl)CN3C(=O)c1cc2cc(NC(=O)c3ccc4ccccc4c3)ccc2[nH]1` (centres unmarked) [Example 15, Methyl 1-chloromethyl-5-hydroxy-3-[5-[(naphthalene-3-ylcarbonyl)amino]-1H-indol-2-ylcarbonyl]-7-trifluoromethyl-1,2,3,6-tetrahydropyrrolo[3,2-e]indole-8-carboxylate] was run?
Answer: 0.83 ng/mL (≈ 1.26 nM)

Question: And the response vs control in vivo at 0.5 mg/kg (Sarcoma-180 cells; i.v. 0.5 mg/kg single dose, tumor weighed six days after dosage)?
Answer: 11%

Question: With `COC(=O)c1c(C(F)(F)F)[nH]c2c(O)cc3c(c12)C(CCl)CN3C(=O)c1cc2cc(NC(=O)c3cc4c(cn3)[nH]c3ccccc34)ccc2[nH]1` (centres unmarked) [Example 19, Methyl 1-chloromethyl-5-hydroxy-3-[5-[(9H-pyrido[3,4-b]indol-3-ylcarbonyl)amino]-1H-indol-2ylcarbonyl]-7-trifluoromethyl-1,2,3,6-tetrahydropyrrolo[3,2e]indole-8-carboxylate] as the molecule, how does the IC50 [1] read?
Answer: 0.11 ng/mL (≈ 0.157 nM)

Question: What about the response vs control in vivo at 0.25 mg/kg (Sarcoma-180 cells; [2]) of the same molecule?
Answer: 22%

Question: With `COC(=O)c1c(C(F)(F)F)[nH]c2c1C13CC1CN(C(=O)c1cc4cc(NC(=O)c5cc6cc(OC)c(OC)c(OC)c6[nH]5)ccc4[nH]1)C3=CC2=O` (centres unmarked) [Example 27, Methyl 6-trifluoromethyl-2-[5-[(5,6,7-trimethoxy-1H indol-2-ylcarbonyl)amino]-1H-indol-2-ylcarbonyl]-1,2,8,8a-tetrahydrocyclopropa[c]pyrrolo[3,2-e]indole-4 (5H)-one-7-carboxylate] as the molecule, how does the IC50 [1] read?
Answer: 0.17 ng/mL (≈ 0.242 nM)

Question: What about the response vs control in vivo at 0.125 mg/kg (Sarcoma-180 cells; [3]) of the same molecule?
Answer: 19%

Question: `COC(=O)c1c(C(F)(F)F)[nH]c2c1C13CC1CN(C(=O)c1cc4cc(NC(=O)c5cc6c(OC)c(OC)c(OC)cc6[nH]5)ccc4[nH]1)C3=CC2=O` (centres unmarked) [Example 28, Methyl 6-trifluoromethyl-2-[5-[(4,5,6-trimethoxy-1-H-indol-2-ylcarbonyl)amino]-1H-indol-2-ylcarbonyl]-1,2,8,8a-tetrahydrocyclopropa[c]pyrrolo[3,2-e]indole-4(5H)-one-7-carboxylate] was tested. Which IC50 [1] did it give?
Answer: 0.11 ng/mL (≈ 0.156 nM)

Question: What about the response vs control in vivo at 0.25 mg/kg (Sarcoma-180 cells; [2]) of the same molecule?
Answer: 28%

Question: Which results are given for `COC(=O)c1c(C(F)(F)F)[nH]c2c1C13CC1CN(C(=O)c1cc4cc(NC(=O)c5cc6ccccc6cn5)ccc4[nH]1)C3=CC2=O` (centres unmarked) [Example 31, Methyl 3-[5-[(isoquinolin-3-ylcarbonyl)amino]-1H-indol-2-ylcarbonyl]-6-trifluoromethyl-1,2,8,8a-tetrahydrocyclopropa[c]pyrrolo[3,2-e]indol-4 (5H)-one-7-carboxylate]?
Answer: IC50 [1]: 0.1 ng/mL (≈ 0.16 nM); response vs control in vivo at 0.125 mg/kg (Sarcoma-180 cells; [3]): 24%

Question: Which IC50 [1] does the source give for `COC(=O)c1c(C(F)(F)F)[nH]c2c1C13CC1CN(C(=O)c1cc4cc(NC(=O)c5cc6c(OC)c(OC)c(OC)cc6cn5)ccc4[nH]1)C3=CC2=O` (centres unmarked) [Example 32, Methyl 6-trifluoromethyl-2-[5-[(5,6,7-trimethoxyisoquinolin-3-ylcarbonyl)amino]-1H-indol-2-ylcarbonyl]-1,2,8,8a-tetrahydrocyclopropa[c]pyrrolo[3,2e]indol-4 (5H)-one-7-carboxylate] here?
Answer: 0.09 ng/mL (≈ 0.126 nM)

Question: And the response vs control in vivo at 0.125 mg/kg (Sarcoma-180 cells; [3])?
Answer: 23%

Question: Which IC50 [1] does the source give for `COC(=O)c1c(C(F)(F)F)[nH]c2c(O)cc3c(c12)C(CBr)CN3C(=O)c1cc2cc(NC(=O)c3cc4ccccc4o3)ccc2[nH]1` (centres unmarked) [Example 37, Methyl 3-[5-[(benzofuran-2-ylcarbonyl)amino]-1H-indol-2-ylcarbonyl]-1-bromomethyl-5-hydroxy-7-trifluoromethyl-1,2,3,6-tetrahydropyrrolo[3,2-e]indole-8-carboxylate] here?
Answer: 0.61 ng/mL (≈ 0.877 nM)

Question: And the response vs control in vivo at 0.25 mg/kg (Sarcoma-180 cells; [2])?
Answer: 24%

Question: With `COC(=O)c1c(C(F)(F)F)[nH]c2c(OC(=O)N3CCN(C)CC3)cc3c(c12)C(CCl)CN3C(=O)c1cc2cc(NC(=O)c3cc4cc(OC)c(OC)c(OC)c4[nH]3)ccc2[nH]1` (centres unmarked) [Example 51, Methyl 1-chloromethyl-5-(4-methylpiperazin-1-ylcarbonyl)oxy-7-trifluoromethyl-3-[5-[(5,6,7-trimethoxy1H-indol-2-ylcarbonyl)amino]-1H-indol-2-ylcarbonyl)-1,2,3,6tetrahydropyrrolo[3,2-e]indol, e-8-carboxylate] as the molecule, how does the response vs control in vivo at 4 mg/kg (Sarcoma-180 cells) read?
Answer: 25%

Question: `COC(=O)c1c(C(F)(F)F)[nH]c2c(OC(=O)N3CCN(C)CC3)cc3c(c12)C(CCl)CN3C(=O)c1cc2cc(NC(=O)c3cc4ccccc4cn3)ccc2[nH]1` (centres unmarked) [Example 52, Methyl 1-chloromethyl-5-(4-methylpiperazin-1-ylcarbonyl)oxy-3-[5-[(isoquinolin-3-ylcarbonyl)amino]-1H-indol-2-ylcarbonyl)-7-trifluoromethyl-1,2,3,6-tetrahydropyrrolo[3,2-e]indole-8-carboxylate] was tested. Which response vs control in vivo at 1 mg/kg (Sarcoma-180 cells) did it give?
Answer: 12%

Question: `COC(=O)c1c(C(F)(F)F)[nH]c2c(OC(=O)N3CCN(C)CC3)cc3c(c12)C(CBr)CN3C(=O)c1cc2cc(NC(=O)c3cc4cc(OC)c(OC)c(OC)c4[nH]3)ccc2[nH]1` (centres unmarked) [Example 53, Methyl 1-bromomethyl-5-(4-methylpiperazin-1-ylcarbonyl)oxy-7-trifluoromethyl-3-[5-[(5,6,7-trimethoxy1H-indol-2-ylcarbonyl)amino]1H-indol-2-ylcarbonyl]-1,2,3,6-tetrahydropyrrolo[3,2-e]indole-8-carboxylate] was tested. Which response vs control in vivo at 4 mg/kg (Sarcoma-180 cells) did it give?
Answer: 20%

Question: How did the response vs control in vivo at 0.25 mg/kg (Sarcoma-180 cells) turn out when `COC(=O)c1c(C(F)(F)F)[nH]c2c(OC(=O)N3CCN(C)CC3)cc3c(c12)C(CBr)CN3C(=O)c1cc2cc(NC(=O)c3cc4ccccc4cn3)ccc2[nH]1` (centres unmarked) [Example 54, Methyl 1-bromomethyl-5-(4-methylpiperazin-1-ylcarbonyl)oxy-3-[5-[(isoquinolin-3-ylcarbonyl)amino]-1H-indol-2-ylcarbonyl]-7-trifluoromethyl-1,2,3,6-tetrahydropyrrolo[3,2-e]indole-8-carboxylate hydrochloride salt] was run?
Answer: 15%

Question: For `COC(=O)c1c(C(F)(F)F)[nH]c2c(O)cc3c(c12)[C@H](CCl)CN3C(=O)c1cc2cccc(OC)c2o1` [Example 70, Methyl (1S)-1-chloromethyl-5-hydroxy-3-(7-methoxybenzofuran-2-ylcarbonyl)-7-trifluoromethyl-1,2,3,6-tetrahydropyrrolo[3,2-e]indole-8-carboxylate], which IC50 [1] is on record?
Answer: 2 ng/mL (≈ 3.83 nM)

Question: `COC(=O)c1c(C(F)(F)F)[nH]c2c(O)cc3c(c12)[C@H](CCl)CN3C(=O)/C=C/c1ccc(OC)cc1` [Example 74, Methyl (1S)-1-chloromethyl-5-hydroxy-3-[2-(4-methoxyphenyl)ethylene-1-ylcarbonyl]-7-trifluoromethyl-1,2,3,6-tetrahydropyrrolo[3,2-e]indole-8-carboxylate] was tested. Which IC50 [1] did it give?
Answer: 1.3 ng/mL (≈ 2.55 nM)

Question: `COC(=O)c1c(C(F)(F)F)[nH]c2c1[C@@]13C[C@@H]1CN(C(=O)c1cc4cc(NC(=O)OC(C)(C)C)ccc4[nH]1)C3=CC2=O` [Example 84, Methyl (7bR, 8aS)-2-[5-(t-butoxycarbonyl)amino-1H-indole-2-ylcarbonyl]-6-trifluoromethyl-1,2,8,8a-tetrahydrocyclopropa[c]pyrrolo[3,2-e]indole-4 (5H)-one-7-carboxylate] was tested. Which IC50 [1] did it give?
Answer: 1.7 ng/mL (≈ 2.98 nM)
